# Like-named read-outs stand apart in the source and are kept apart here.
# What was measured:
# [1] = tested on: p21 protein in 23SK human skin cells; test: p21 induction by western analysis; format: cell-based; settings: 23SK cells, 30 hr exposure
# Protocol: FIGS. 3A and 3B illustrate the level of induced p21 protein seen in diploid human fibroblasts after a 30 hr exposure to each of the indicated chemoprotective polyamines. […] In these experiments, the 23SK human skin cells were exposed for 30 hr to an “IC80” dose of each of the indicated chemoprotective polyamines and then lysed. Cell extracts were then prepared in order to measure p21 levels by western analysis (FIG. 3A).
# FIG. 3 illustrates that chemoprotective polyamines are able to induce expression of the negative cell cycle regulatory protein, p21, after exposing the human skin cells to the polyamine molecules. […] In these experiments, the 23SK human skin cells were exposed for 30 hr to an “IC80” dose of each of the indicated chemoprotective polyamines and then lysed. Cell extracts were then prepared in order to measure p21 levels by western analysis (FIG. 3A). Although the ability of modified polyamines to induce p21 is known in the literature (Kramer, D. et al., Cancer Res. 59:1278-1286, 1999), it is a novel aspect of this invention that those chemoprotective polyamines with longer aliphatic “arms” were better able to induce expression of p21 as shown in FIG. 4.
# 23SK skin cells = test: Flow cytometry cell cycle distribution; format: cell-based, human; settings: IC80 dose
# Excerpt: FIGS. 5A-5D are cell histograms showing the results from flow cytometry analysis of chemoprotective polyamine-treated 23SK skin cells.
# In FIG. 5, cell histograms showing the results from flow cytometry analysis of chemoprotective polyamine-treated 23SK skin cells are shown. […] The transient nature of the cell cycle block induced by chemoprotective polyamines is believed to be an important aspect of their efficacy, i.e., their ability to block cell cycle progression in stem cells during the course of chemo- or radiotherapy, and the resumption of normal stem cell division after a given cancer therapy course has been completed.
# [2] = tested on: Cytoxan-induced alopecia in rat pups; test: Cytoxan-induced alopecia in rat pups; format: in vivo
# Protocol: Induction of alopecia by cytoxan (CTX). Lactating Sprague Dawley mother rats with rat pups were purchased from Harlan Sprague Dawley (Indianapolis, Ind.). The mother rats were given food and water ad libitum. The rats pups were tested in the model of chemotherapy-induced alopecia described by Hussein A. M. et al., Science: 249, 1564 (1990). Cytoxan (CTX), a chemotherapeutic widely used in the treatment of cancer, was used to induce alopecia in the rats. A common side effect of cytoxan treatment in patients is alopecia. Lyophilized vials of Cytoxan were obtained from Mead-Johnson. To produce CTX-induced alopecia, 11 day old rat pups, which are at the peak of coat growth, were injected i.p. with 30-35 μg of CTX/gm body weight. CTX was dissolved in water. By day 18 of life, the animals have shed virtually 100% of their coat leaving bare skin on their backs. Thus, topical application of protective drugs to the animal's back prior to the CTX insult provides a suitable test for prevention of chemotherapy-induced alopecia. A separate alopecia assay was also developed in which whole-body irradiation on day 11 of life was used as the insult. This assay is described in further detail in Example 12 which follows.
# In the earliest studies with chemoprotective polyamines, the molecules were prepared in a topical delivery vehicle consisting of from 50-70% ethanol in water, depending on the solubility of the compound. The compounds in ethanol/water solution from 50-150 µl in volume were topically administered to the backs of the pups once per day before and after CTX challenge. Using a micropipette, the formulation was applied to an approximately 2 cm2 section of skin on the backs of the rat pups. Specifically, the pups were treated once daily for the 4-5 days before CTX challenge, once on the day of CTX challenge and once daily for 5 days afterwards. Control groups consisted of pups receiving only delivery vehicle. […]
# In the earliest studies with chemoprotective polyamines, hair loss was evaluated using a modified alopecia-scoring index described by Chen G. et al., Int. […] In the later studies with aminothiols a simpler scoring scale was adopted in which coat density was scored on a 0-100 scale as “% of normal coat density.”
# Method: To assess the ability of topical treatments to prevent Cytoxan-induced alopecia we used a published protocol (Hussein et al., Science. 249(4976):1564-6, 1990) in which 11 day old neonate rat pups (Sprague-Dawley) receive a total of 6 topical skin treatments of active agent(s) during the 5 hr before and 2 hr after a single ip dose of Cytoxan (32 ug/gm b.w.). […] The density of the rat coats in the topical treatment area was scored on day 18 of life for animals injected with Cytoxan.
# [3] = tested on: primary, diploid fibroblasts isolated from human skin; test: Growth inhibition of primary diploid human skin fibroblasts; format: cell-based; settings: 50% inhibition of human skin fibroblast growth
# Protocol: The in vitro growth inhibitory effects of certain of the chemoprotective polyamines of the invention were measured using primary, diploid fibroblasts isolated from human skin.
# DNA = DNA binding/precipitation from solution; settings: Expt. 1; read-out: DNA Bind/ppt. IC50 (uM), Expt. 1
# Excerpt: The chemoprotective polyamines provided herein are also able to bind, denature and precipitate DNA from solution. As the skilled artisan will appreciate, as the concentration of polyamine is increased, there is a point where polyamine binding to helical B-DNA induces single-stranded ‘bubbles’ and conversion to other forms of DNA structure, such as Z-DNA (Feuerstein, B. et al., Nuc. Acids Res. 17:6883-6892, 1989; Basu, H. and Marton, L., Biochem. J. 244:243-246, 1987), as well as precipitating the DNA from solution.
# [4] = tested on: radiation-induced dermatitis on backs of rats; test: Radiation-induced dermatitis in rat skin model; format: in vivo; settings: 20 mM epinephrine; vehicle 0:95:5; cage 480; 8.7 Gy
# Protocol: To determine efficacy of chemoprotective polyamines in preventing radiation-induced dermatitis, adult rats were topically treated with the compounds before and after radiation treatment. Rats were exposed to medically relevant levels of radiation that could induce clinical radiation dermatitis. Sprague Dawley rats (Harlan Spraque Dawley) at 4-6 weeks-old were anesthetized with sodium pentobarbital at 40 mg/kg body weight (Sigma, St. Louis, Mo.) prior to radiation exposure. A defined area (1.5×2 cm) on the backs of rats was irradiated using a Mark I, Model 30, Cs 137 irradiator (J. L. Sheppard & Associates). Before topical drug treatment or irradiation, the backs of the rats were clipped using an Oster clipper at the closest setting. The rest of the body was protected from radiation exposure using a lead shield (2.5 cm thick). A dose response study was initially performed to reproduce relevant dermatitis that matched the Grade (I-IV) scale used to score the severity of radiation-induced dermatitis in humans. The severity of the dermatitis was scored 12-13 days post-irradiation at the peak of the dermal inflammation. […] Radiation dermatitis of Grade II-III was considered most clinically relevant, so a radiation dose of 8.7 Gy was typically used in the rats. The clipped back region on the rats was treated topically with aminothiol in delivery vehicle four times in the two hours immediately preceding irradiation (at −2 hr, −1 hr, −30 min, and −10 min; irradiation was at 0 min
# The polyamines or amino thiols were prepared in a delivery vehicle, consisting of ethanol:propylene glycol:water, ranging from 0:95:5 to 50:30:20 depending upon the solubility characteristics of the topical molecule, and the degree of dermal penetration desired. A vehicle composed of an emulsion formed by sonication of ‘nonionic liposomes’ and isopropyl myristate was also used (Jayaraman, S. et al., J. Pharm. Sci. 85:1082-1084, 1996). In a commonly used protocol, 220 μl of topical drug/vehicle was applied to an area ˜2 cm×3 cm on the back in the 2 hr just prior to irradiation. Rats treated with only the delivery vehicle served as controls. Twelve to thirteen days post-radiation, the rats were evaluated for dermatitis within the irradiated area. In early studies, a modified scoring scale described by Masuda K. et al., Int. J. Radiation Oncol. Biol. Phys: 12, 1645 (1986) was used, and in later studies, including those described here, a simplified scoring system was used in which the percentage of the irradiated, rectangular field covered with scrab material was estimated between 0 and 100% to provide scores on a scale between 0 and 100.
# This example relates to the use of a rat skin model to evaluate the efficacy of two amino thiol compounds in preventing radiation-induced dermatitis. To test whether topically-applied aminothiols could prevent the radiodermatitis caused by external beam radiotherapy, the rodent model described in Example 3 was slightly modified. Briefly, the radiodermatitis model involved: • i) shaving the backs of 6-7 week old rats or mice; • ii) applying four topical doses of aminothiol in a delivery vehicle composed of ethanol:propylene glycol (PG):water in the 2 hr prior to irradiation; • iii) irradiating a small, 3 cm^2 (1.5×2 cm) area on the animal's back (through a window in a lead plate) with 8.7 Gy of γ radiation from a Cs^137 source; and • iv) scoring the severity of the dermatitis 12-13 days later, at the peak of the inflammatory skin reaction. Radiodermatitis severity was scored by estimating the percentage of the irradiated field that was covered by scrab material.
# Methods: Treatments were applied as described in Example 6.
# [5] = tested on: radiation-induced alopecia in 11 day old rat pups; settings: vehicle 50:25:25
# Protocol: In some cases, topical vasoconstrictors may be used to reduce the severity of cancer therapy side-effects. […] Because cysteamine might have been toxic if distributed systemically at high concentrations in animals, a vasoconstrictor, in this case epinephrine (epinephrine-HCl, Sigma Chemical, 20 mM in topical 0:95:5 vehicle; ethanol:PG:water) was topically co-applied with cysteamine in an effort to prevent any potential uptake of the small aminothiol by skin vasculature. […] These initial experiments were done using a rat model where whole-body radiation is used to induce alopecia. This protocol is a variation of the Cytoxan-induced alopecia protocol described in Example 2. Here, 11 day old rat pups receive four topical treatments to their backs in the two hour period (at −2 hr, −1 hr, −30 min, −10 min) just prior to receiving whole-body irradiation (3.65 min) in a Cs137 irradiator. […] The topical vehicle varies from 0:95:5 (ethanol:PG:water) to 50:30:20, depending upon the solubility and concentration of the particular aminothiol. […] Following irradiation, the animals are housed with lactating mothers for 9 days and protection from radiation-induced alopecia within the topically-treated area is scored on day 20 of life. Protection is scored as the percentage of coat density seen in unirradiated rats.
# Here, epinephrine-HCl (FW:220) was dissolved in an ethanol:propylene glycol:water delivery vehicle and was applied four times in the two hours just prior to irradiating the 11 day old rat pups. The animals were then housed with lactating mothers until day 20 of life when the degree of protection conferred by the topical epinephrine was scored.
smiles,measurement,setting,value
CCNCCCCNCC=C(CNCC)CNCCCCNCC [PrC-110],p21 fold-induction at IC80 Dose,[1],2.91 fold
same,Cell Cycle Distribution At IC80 Dose (%) G1,23SK skin cells; G1,60%
same,Cell Cycle Distribution At IC80 Dose (%) G2/M,23SK skin cells; G2/M,14%
same,Cell Cycle Distribution At IC80 Dose (%) S,23SK skin cells; S,26%
same,protection against Cytoxan-induced alopecia,"[2]; topical, alcohol:water vehicle, once per day five days before and five days after single systemic Cytoxan dose",excellent efficacy
same,IC50,"[3]; Expt. 1, read-out: IC50 (uM), Expt. 1",1680 µM
same,IC50,"[3]; Expt. 2, read-out: IC50 (uM), Expt. 2",809 µM
same,IC50,DNA,270 µM
"Oc1ccc(/C=C/c2cc(O)cc(O)c2)cc1 [Resveratrol, trihydroxy-trans-stilbene, reference compound]",Alopecia Score (% Normal Coat Density in Topical Treatment Area),"[2]; Resveratrol 5 umol/day alone, ip Cytoxan 32 ug/gm b.w., Experiment 564-567",5%
CNC[C@H](O)c1ccc(O)c(O)c1 [epinephrine],Dermatitis Score (% of irradiated field free of scab material),[4],20 ± 8%
same,Alopecia Score (% Normal Coat Density in Topical Treatment Area),"[5]; 20 mM epinephrine, 3.65 min γ irradiation (Cs137), Experiment 647-650",10%
same,Alopecia Score (% Normal Coat Density in Topical Treatment Area),"[5]; 100 mM epinephrine, 3.65 min γ irradiation",35 ± 19%
same,Alopecia Score (% Normal Coat Density in Topical Treatment Area),"[5]; 500 mM epinephrine, 3.65 min γ irradiation",43 ± 17%
same,Alopecia Score (% Normal Coat Density in Topical Treatment Area),"[5]; 1000 mM epinephrine, 3.65 min γ irradiation",94 ± 6%
